Data: the Kinase Knowledgebase extract (Sharma et al. 2016)

Biological target: CDK2 (human) (UniProt P24941)
Assay: Enzyme Assay

Row | SMILES | IC50 [nM]
1 | N[C@H]1CC[C@H](Nc2nc(NCCCCc3ccccc3)c3ncn(C4CCCC4)c3n2)CC1 | 59
2 | N[C@H]1CC[C@H](Nc2nc(NCCCN3CCOCC3)c3ncn(C4CCCC4)c3n2)CC1 | 116
3 | N[C@H]1CC[C@H](Nc2nc(NCCc3ccncc3)c3ncn(C4CCCC4)c3n2)CC1 | 69
4 | CCCCCCCCNc1nc(N[C@H]2CC[C@H](N)CC2)nc2c1ncn2C1CCCC1 | 360
5 | CC(C)n1cnc2c(NCC3CC3)nc(N[C@H]3CC[C@H](N)CC3)nc21 | 141
6 | CC(C)n1cnc2c(NCCCC(=O)c3ncc[nH]3)nc(N[C@H]3CC[C@H](N)CC3)nc21 | 840

Continued, values first:

Row | IC50 [nM] | SMILES
7 | 53 | CCCCCNc1nc(N[C@H]2CC[C@H](N)CC2)nc2c1ncn2C1CCCC1
8 | 23 | CCCCNc1nc(N[C@H]2CC[C@H](N)CC2)nc2c1ncn2C1CCCC1
9 | 58 | N[C@H]1CC[C@H](Nc2nc(NNCC(F)(F)F)c3ncn(C4CCCC4)c3n2)CC1
10 | 13 | CCNc1nc(N[C@H]2CC[C@H](N)CC2)nc2c1ncn2C1CCCC1
11 | 18 | N[C@H]1CC[C@H](Nc2nc(NCCCO)c3ncn(C4CCCC4)c3n2)CC1
12 | 56 | N[C@H]1CC[C@H](Nc2nc(NCc3cccs3)c3ncn(C4CCCC4)c3n2)CC1
